# Experimental data published in ChEMBL document CHEMBL1157924, “Exploration of secondary and tertiary pharmacophores in unsymmetrical N,N'-diaryl urea inhibitors of soluble epoxide hydrolase” (Bioorg Med Chem Lett, 2010).
# Biological target: T1, Bifunctional epoxide hydrolase 2 (Homo sapiens, UniProt P34913)
# T1 sequence (P34913 whole entry): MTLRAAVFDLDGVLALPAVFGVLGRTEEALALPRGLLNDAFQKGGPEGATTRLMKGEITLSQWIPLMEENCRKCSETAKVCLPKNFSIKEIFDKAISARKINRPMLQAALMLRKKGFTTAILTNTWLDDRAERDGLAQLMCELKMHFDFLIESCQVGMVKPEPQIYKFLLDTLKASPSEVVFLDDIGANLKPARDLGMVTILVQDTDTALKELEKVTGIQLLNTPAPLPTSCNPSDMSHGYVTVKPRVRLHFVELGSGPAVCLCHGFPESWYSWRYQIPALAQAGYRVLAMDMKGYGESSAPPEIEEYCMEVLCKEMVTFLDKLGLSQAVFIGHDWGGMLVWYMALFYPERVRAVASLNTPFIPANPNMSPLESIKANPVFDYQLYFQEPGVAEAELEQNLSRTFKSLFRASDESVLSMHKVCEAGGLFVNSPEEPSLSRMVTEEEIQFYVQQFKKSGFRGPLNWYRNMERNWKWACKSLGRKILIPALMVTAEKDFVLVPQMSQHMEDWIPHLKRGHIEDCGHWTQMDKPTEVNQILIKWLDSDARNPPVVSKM
# Test: Inhibition of soluble epoxide hydrolase by fluorescence assay
row,SMILES,IC50 [nM]
1,O=C(Nc1ccc(F)cc1)Nc1ccc(C(=O)NCCN2CCOCC2)cc1,140
2,O=C(Nc1ccc(Cl)cc1)Nc1ccc(C(=O)NCCN2CCOCC2)cc1,16
3,O=C(Nc1ccc(C(=O)NCCN2CCOCC2)cc1)Nc1ccc(C(F)(F)F)cc1,1
4,O=C(Nc1ccc(OC(F)(F)F)cc1)Nc1ccc(C(=O)NCCN2CCOCC2)cc1,2
5,CN1CCN(C(=O)c2ccc(NC(=O)Nc3ccc(C(F)(F)F)cc3)cc2F)CC1,4
6,O=C(Nc1ccc(C(F)(F)F)cc1)Nc1ccc(C(=O)NCCN2CCCC2)c(F)c1,19
7,O=C(Nc1ccccc1)Nc1ccc(C(=O)NCCN2CCOCC2)cc1,320
8,O=C(Nc1ccc(Cl)cc1)Nc1ccc(F)c(C(=O)NCCN2CCCC2)c1,760
9,O=C(Nc1ccc(Cl)cc1)Nc1ccc(F)c(C(=O)NCCN2CCOCC2)c1,38
10,O=C(Nc1ccc(C(F)(F)F)cc1)Nc1ccc(F)c(C(=O)NCCN2CCOCC2)c1,18
11,O=C(Nc1ccc(C(=O)Nc2cccnc2)cc1)Nc1ccc(C(F)(F)F)cc1,8
12,O=C(Nc1ccc(C(F)(F)F)cc1)Nc1ccc(F)c(C(=O)N2CCOCC2)c1,8
13,O=C(Nc1ccc(C(=O)N2CCOCC2)cc1)Nc1ccc(C(F)(F)F)cc1,5
14,O=C(Nc1ccc(OC(F)(F)F)cc1)Nc1ccc(C(=O)N2CCOCC2)cc1,4
15,O=C(Nc1ccc(C(=O)NCC(=O)N2CCOCC2)cc1)Nc1ccc(C(F)(F)F)cc1,3
16,O=C(O)CNC(=O)c1ccc(NC(=O)NC23CC4CC(CC(C4)C2)C3)cc1,490
17,O=C(Nc1ccccc1)Nc1cccc(S(=O)(=O)CCCN2CCOCC2)c1,100
18,O=C(Nc1ccc(C(F)(F)F)cc1)Nc1cccc(S(=O)(=O)CCCN2CCOCC2)c1,1
19,O=C(O)CCCNC(=O)c1ccc(NC(=O)Nc2ccc(C(F)(F)F)cc2)cc1,19
20,O=C(O)COCCNC(=O)c1ccc(NC(=O)NC23CC4CC(CC(C4)C2)C3)cc1,80
21,O=C(Nc1ccc(Cl)cc1)Nc1ccc(C(=O)N2CCC(N3CCOCC3)CC2)cc1,235
22,O=C(Nc1ccccc1)Nc1ccc(C(=O)N2CCOCC2)cc1,251

row,SMILES,IC50 [nM]
1,O=C(Nc1ccc(F)cc1)Nc1ccc(C(=O)N2CCOCC2)cc1,170
2,O=C(Nc1ccc(C(=O)c2ccc(C(=O)O)cc2)cc1)Nc1ccc(C(F)(F)F)cc1,20
3,O=C(O)CNC(=O)c1cccc(NC(=O)NC23CC4CC(CC(C4)C2)C3)c1,800
4,O=C(Nc1ccc(Cl)cc1)Nc1ccc(C(=O)N2CCOCC2)cc1,18
5,O=C(Nc1ccc(C(F)(F)F)cc1)Nc1ccc(S(=O)(=O)N2CCOCC2)cc1,1
6,O=C(Nc1ccccc1)Nc1ccc(S(=O)(=O)CCCN2CCOCC2)cc1,54
7,CN(CC(=O)O)C(=O)c1cccc(NC(=O)NC23CC4CC(CC(C4)C2)C3)c1,230
8,O=C(Nc1ccc(C(F)(F)F)cc1)Nc1ccc(S(=O)(=O)CCCN2CCOCC2)cc1,1
9,CC(C)N1CCN(S(=O)(=O)c2cccc(NC(=O)Nc3ccc(C(F)(F)F)cc3)c2)CC1,3
10,CC(C)N1CCN(S(=O)(=O)c2ccc(NC(=O)Nc3ccc(C(F)(F)F)cc3)cc2)CC1,5
11,O=C(Nc1ccc(C(F)(F)F)cc1)Nc1ccc(S(=O)(=O)NCCN2CCOCC2)cc1,3
12,O=C(Nc1ccc(C(F)(F)F)cc1)Nc1cccc(S(=O)(=O)N2CCOCC2)c1,1
13,CN(CC(=O)O)C(=O)c1ccc(NC(=O)NC23CC4CC(CC(C4)C2)C3)cc1,200
14,O=C(Nc1ccc(C(F)(F)F)cc1)Nc1ccc(C(=O)NCCN2CCOCC2)c(F)c1,2
15,CN1CCN(C(=O)c2ccc(NC(=O)Nc3ccc(OC(F)(F)F)cc3)cc2)CC1,7
16,CC(C)N1CCN(C(=O)c2ccc(NC(=O)Nc3ccc(C(F)(F)F)cc3)cc2)CC1,2
17,CC(C)N1CCN(C(=O)c2ccc(NC(=O)Nc3ccc(OC(F)(F)F)cc3)cc2)CC1,4
18,O=C(Nc1ccc(Cl)cc1)Nc1ccc(C(=O)N2CCOCC2)c(F)c1,11
19,O=C(Nc1ccc(C(F)(F)F)cc1)Nc1ccc(C(=O)N2CCOCC2)c(F)c1,2
20,O=C(Nc1ccc(C(=O)N2CCNCC2)cc1)NC12CC3CC(CC(C3)C1)C2,12
21,CN1CCN(C(=O)c2ccc(NC(=O)Nc3ccc(C(F)(F)F)cc3)cc2)CC1,14
22,O=C(O)CCCNC(=O)c1cccc(NC(=O)Nc2ccc(C(F)(F)F)cc2)c1,120

row,SMILES,IC50 [nM]
1,O=C(O)COCCNC(=O)c1cccc(NC(=O)NC23CC4CC(CC(C4)C2)C3)c1,130
2,O=C(Nc1ccc(C(F)(F)F)cc1)Nc1cccc(C(=O)c2ccc(C(=O)O)cc2)c1,27
3,O=C(Nc1ccc(C(=O)NCCN2CCCC2)cc1)Nc1ccc(C(F)(F)F)cc1,48
4,O=C(Nc1ccc(C(=O)NCCN2CCOCC2)cc1)Nc1ccc(C2CCCCC2)cc1,19
5,O=C(Nc1ccc(C(=O)NCCN2CCOCC2)cc1)NC12CC3CC(CC(C3)C1)C2,3
6,O=C(Nc1ccc(Cl)cc1)Nc1cccc(C(=O)NCCN2CCOCC2)c1,130
7,O=C(Nc1ccc(C(F)(F)F)cc1)Nc1cccc(C(=O)NCCN2CCOCC2)c1,22
8,O=C(Nc1ccc(C(F)(F)F)cc1)Nc1cccc(C(=O)Nc2cccnc2)c1,18
9,COCCNC(=O)c1cccc(NC(=O)NC23CC4CC(CC(C4)C2)C3)c1,110
10,CN1CCN(C(=O)c2cc(NC(=O)Nc3ccc(C(F)(F)F)cc3)ccc2F)CC1,16
11,O=C(Nc1ccc(Cl)cc1)Nc1cccc(C(=O)N2CCC(N3CCOCC3)CC2)c1,47
12,O=C(Nc1ccc(Cl)cc1)Nc1cccc(C(=O)N2CCOCC2)c1,49
13,CN1CCN(C(=O)c2cccc(NC(=O)Nc3ccc(C(F)(F)F)cc3)c2)CC1,12
14,CC(C)N1CCN(C(=O)c2cccc(NC(=O)Nc3ccc(C(F)(F)F)cc3)c2)CC1,15
15,O=C(Nc1ccc(C(F)(F)F)cc1)Nc1cccc(C(=O)NCCN2CCCC2)c1,68
16,O=C(Nc1ccc(C2CCCCC2)cc1)Nc1cccc(C(=O)NCCN2CCOCC2)c1,280
17,CN1CCN(C(=O)c2ccc(NC(=O)Nc3ccc(F)cc3)cc2)CC1,160
18,O=C(Nc1cccc(C(=O)NCCN2CCOCC2)c1)NC12CC3CC(CC(C3)C1)C2,62
19,O=C(Nc1ccccc1)Nc1cccc(C(=O)NCCN2CCOCC2)c1,2800
20,COCCNC(=O)c1ccc(NC(=O)NC23CC4CC(CC(C4)C2)C3)cc1,54
21,O=C(Nc1ccc(C(F)(F)F)cc1)Nc1cccc(S(=O)(=O)NCCN2CCOCC2)c1,1
22,CN1CCN(C(=O)c2cccc(NC(=O)NC34CC5CC(CC(C5)C3)C4)c2)CC1,36
